The record followed here is publication PMC8767786 (Nature structural & molecular biology, 2021).

The target of the assay is T1, TRPM5 (Danio rerio, UniProt S5UH55).
T1 sequence (S5UH55 1-1165): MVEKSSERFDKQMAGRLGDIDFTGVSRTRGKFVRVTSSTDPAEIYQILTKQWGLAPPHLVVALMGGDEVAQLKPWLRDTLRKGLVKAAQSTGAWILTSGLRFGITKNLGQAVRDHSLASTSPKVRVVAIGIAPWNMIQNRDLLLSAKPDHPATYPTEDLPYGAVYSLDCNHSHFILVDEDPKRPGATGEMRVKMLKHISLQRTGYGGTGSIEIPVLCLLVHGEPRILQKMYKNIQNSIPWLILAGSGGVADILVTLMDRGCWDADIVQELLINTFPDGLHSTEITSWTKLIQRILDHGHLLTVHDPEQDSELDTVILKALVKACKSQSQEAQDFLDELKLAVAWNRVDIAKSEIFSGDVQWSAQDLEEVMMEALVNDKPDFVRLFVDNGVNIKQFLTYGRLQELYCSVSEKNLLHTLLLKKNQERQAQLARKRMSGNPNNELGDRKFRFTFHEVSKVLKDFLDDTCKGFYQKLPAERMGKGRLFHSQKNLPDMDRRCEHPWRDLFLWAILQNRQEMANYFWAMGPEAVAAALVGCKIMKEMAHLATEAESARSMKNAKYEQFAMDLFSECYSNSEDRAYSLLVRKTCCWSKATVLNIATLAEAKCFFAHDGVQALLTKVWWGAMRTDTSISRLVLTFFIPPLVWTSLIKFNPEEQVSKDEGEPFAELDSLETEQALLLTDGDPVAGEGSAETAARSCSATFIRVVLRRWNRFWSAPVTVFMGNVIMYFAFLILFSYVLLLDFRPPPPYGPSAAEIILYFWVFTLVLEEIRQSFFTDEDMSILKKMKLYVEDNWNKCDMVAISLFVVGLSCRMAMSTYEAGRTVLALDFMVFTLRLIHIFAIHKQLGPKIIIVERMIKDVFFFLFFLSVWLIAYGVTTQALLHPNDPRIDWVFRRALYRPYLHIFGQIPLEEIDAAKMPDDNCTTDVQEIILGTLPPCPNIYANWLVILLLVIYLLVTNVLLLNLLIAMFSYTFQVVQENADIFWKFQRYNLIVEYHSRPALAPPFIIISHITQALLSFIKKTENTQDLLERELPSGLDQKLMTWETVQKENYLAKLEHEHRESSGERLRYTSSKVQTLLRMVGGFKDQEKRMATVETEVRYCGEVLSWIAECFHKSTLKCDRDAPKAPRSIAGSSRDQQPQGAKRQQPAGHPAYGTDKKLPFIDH
In words: cryo-EM structure. The format is cell-based.

In general, IC50 refers to the concentration needed to halve the response being measured. Low values mean greater potency, high ones weaker potency. With `COc1ccc(C=NNC(=O)Cc2cccc3ccccc23)cc1OC` [NDNA, N’-(3,4-dimethoxybenzylidene)-2-(naphthalen-1-yl)acetohydrazide], the IC50 was around 2.4 nM.
